Laboratory results as given in patent publication EP0619297B1, “Fungicides for the control of take-all desease of plants” (MONSANTO COMPANY, priority 1993, dated 1994).
Converted amounts (≈) assume the structure as drawn. Like-named read-outs stand apart in the source and are kept apart here.

Tests used:
[1] = test system: Gaeumannomyces graminis var. tritici (Ggt); assay: In vitro assay: mycelial growth on minimal media agar plates (Percent Inhibition; IC50); type: cell-based; conditions: for inhibition at 0.1 ppm: read-out: In vitro(ppm) 0.1, Percent Inhibition; for inhibition at 1 ppm: read-out: In vitro(ppm) 1, Percent Inhibition; for inhibition at 10 ppm: read-out: In vitro(ppm) 10, Percent Inhibition
Protocol: The test compounds (0.25 mL of an appropriate stock solution in acetone) are incorporated into 25 mL minimal media agar [prepared by autoclaving a solution of 17.5 g Czapek Dox broth (Difco), 7.5 g purified agar or Bacto-agar (Difco), and 500 mL distilled/deionized water, and then adding 50 µL of 1 mg/mL thiamine hydrochloride and 50 µL of 1 mg/mL biotin in 5% ethanol] and plates are prepared.
Each plate is inoculated by placing in a triangular shape three 4-mm plugs of Gaeumannomyces graminis var. tritici (Ggt) grown on the minimal media agar described above. The plates are incubated in the dark at 19 - 20 °C for 4 to 5 days. The growth of the fungus is measured as the diameter of the mycelial growth. The result is expressed as Percent Inhibition, calculated as [1 - [(mm growth on treated plate - 4)/(mm growth on control plate - 4)]] x 100.
To determine IC5O values, an in vitro assay was run on each compound at the concentrations of 1, 0.1, 0.01, 0.001, and 0.0001 ppm. The percent inhibition was calculated for each concentration using the equation described in the in vitro assay under the section on Biological Assays. Using the two ordered pairs of (concentration, % inhibition) that bracket 50% inhibition of fungal growth, the concentration for 50% inhibition is calculated from the following equation. IC50 = [(50-I2 )C1 + (I1 -50)C2 ]/(I1 -I2 ), [formula] where C1 = 10C2.

[2] = test system: Ggt; assay: In vivo assay: control of Ggt on wheat in 3-inch pots with infested soil, rated after four weeks;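 as to In vivo(ppm) 0.1, percent disease control: rate is mg active ingredient per pot in 3 mL solution not ppm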;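 as to In vivo(ppm) 0.5, percent disease control: rate is mg active ingredient per pot in 3 mL solution not ppm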; design: species or system Gaeumannomyces graminis var. tritici; conditions: Gaeumannomyces graminis, 672 h; for pest or weed control at 0.1 mg/pot: read-out: In vivo(ppm) 0.1, percent disease control; for pest or weed control at 0.5 mg/pot: read-out: In vivo(ppm) 0.5, percent disease control; for pest or weed control at 0.02 mg/pot: read-out: In vivo(ppm) 0.02mg/pot, percent disease control
Protocol: Compounds are tested for control of Ggt on 'Bergen' or 'Anza' varieties of wheat grown in 3-inch square pots containing soil infested with Ggt. The infestation is accomplished by mixing the soil with an inoculum prepared by growing Ggt on 1/4 strength potato dextrose agar (4.875 g potato dextrose agar, 5.0 g Bacto agar, 500 mL distilled, deionized water) in plates and using plugs from the plates to infest sterile oats (400 cc whole oats, 350 mL deionized water, autoclaved). After a one-month incubation period at room temperature, the oats are dried and mixed with the soil at 4% v/v. Four wheat seeds are placed on top of the soil in each pot. […] Five pots are used for each treatment level and the controls, which are untreated, inoculated and non-inoculated pots. After one hour drying time, the seeds are covered with more of the appropriate soil and a layer of vermiculite. The pots are placed in a growth chamber and watered each day. After four weeks, each pot is evaluated for evidence of disease by examination of the seminal roots of each plant under a dissecting microscope. A 0 to 5 rating scale having the following meanings is used: • 0 = no runner hyphae or lesions present • 1 = runner hyphae and a few small lesions present on <10% of root system • 2 = runner hyphae and small lesions present on 10 - 25% of root system • 3 = runner hyphae and lesions present on 25 - 50% of root system • 4 = runner hyphae and many, large, coalescing lesions on >50% of root system • 5 = root system and culm completely inundated with lesions and runner hyphae
From each set of five replicates a high or low score may be eliminated to assure the best representative scores are used to calculate a replicate mean by averaging the remaining scores. This mean score is then compared to the untreated control score and a percent disease control is calculated.

[3] = 0.1 ppm in agar, 19 - 20 °C, 4 to 5 days
[4] = 1 ppm in agar, 19 - 20 °C, 4 to 5 days
[5] = 10 ppm in agar, 19 - 20 °C, 4 to 5 days
[6] = rate 0.1 (head prints ppm, head line ends mg/pot), wheat, soil infested with Ggt, after four weeks, N = no control

SMILES | inhibition at 0.1 ppm [1] | inhibition at 1 ppm [1] | inhibition at 10 ppm [1] | pest or weed control at 0.1 mg/pot ([2]; soil) | pest or weed control at 0.5 mg/pot ([2]; soil) | also measured
CCNC(=O)c1c([Si](C)(C)C)cc(F)c2ccccc12 [Example 1, N-Ethyl-4-fluoro-2-(trimethylsilyl)-1-naphthalenecarboxamide] | 0% | 79% | 79% | 18% |  | 
CCN(CC)C(=O)c1c([Si](C)(C)CI)ccc2ccccc12 [Example 2, N,N-Diethyl-2-[(iodomethyl)dimethylsilyl]-1-naphthalenecarboxamide] | 15% | 46% | 100% | < 0% | < 0% | 
CCN(CC)C(=O)c1c([Si](C)(C)C)ccc2ccccc12 [Example 3, N,N-Diethyl-2-(trimethylsilyl)-1-naphthalenecarboxamide] | 0% | 0% | 100% |  | 68% | 
CCNC(=O)c1c([Si](C)(C)C)ccc2ccccc12 [Example 4, N-Ethyl-2-(trimethylsilyl)-1-naphthalenecarboxamide] | 100% | 100% | 100% | 85% | 99% | 
CCNC(=O)c1cc2ccccc2cc1[Si](C)(C)C [Example 5, N-Ethyl-3-(trimethylsilyl)-2-naphthalenecarboxamide] | 0% | 94% | 100% | 18% | 27% | 
CCNC(=O)c1c(OC(C)(C)C)ccc2ccccc12 [Example 6, 2-(1,1-Dimethylethoxy)-N-ethyl-1-naphthalenecarboxamide] |  |  |  |  |  | inhibition at 0.1 ppm [1, 3]: 21%; inhibition at 1 ppm [1, 4]: 86%; inhibition at 10 ppm [1, 5]: 93%; pest or weed control at 0.1 mg/pot [2, 6]: 53%
CCNC(=O)n1c([Si](C)(C)C)cc2ccccc21 [Example 7, N-Ethyl-2-(trimethylsilyl)-1H-indole-1-carboxamide] | 88% | 100% | 100% | 40% | 79% | 
CCNC(=O)c1c([Si](C)(C)C)sc2ccccc12 [Example 8, N-Ethyl-2-(trimethylsilyl)-benzo[b]thiophene-3-carboxamide] | 97% | 93% | 100% | 43% | 71% | 
CCNC(=O)c1sc2ccccc2c1[Si](C)(C)C [Example 9, N-Ethyl-3-(trimethylsilyl)benzo[b]thiophene-2-carboxamide] | 0% | 0% | 88% | < 0% |  | 
CCNC(=O)c1c([Si](C)(C)C)n(C)c2ccccc12 [Example 10, N-Ethyl-1-Methyl-2-(trimethylsilyl)-1H-indole-3-carboxamide] | 13% | 80% | 85% |  |  | 
CCNC(=O)c1oc2ccccc2c1[Si](C)(C)C [Example 11, N-Ethyl-3-(trimethylsilyl)-2-benzofurancarboxamide] | 27% | 42% | 82% |  |  | 
CCNC(=O)c1c([Si](C)(C)C)oc2ccccc12 [Example 12, N-Ethyl-2-(trimethylsilyl)-3-benzofurancarboxamide] | 97% | 97% | 100% | 85% | 97% | 
C=CCNC(=O)c1c([Si](C)(C)C)sc2ccccc12 [Example 13, N-2-Propenyl-2-(trimethylsilyl)benzo[b]thiophene-3-carboxamide] | 100% | 100% | 100% | 84% | 94% | 
CCN(CC)C(=O)c1c([Si](C)(C)C)sc2ccccc12 [Example 14, N,N-Diethyl-2-(trimethylsilyl)benzo[b]thiophene-3-carboxamide] | 42% | 92% | 100% | 76% | 94% | 
CCNC(=O)C1=C([Si](C)(C)C)S(=O)(=O)c2ccccc21 [Example 15, N-Ethyl-2-(trimethylsilyl)benzo[b]thiophene-3-carboxamide 1,1-dioxide] | 10% | 30% | 83% |  |  | 
CCN(SC)C(=O)c1c([Si](C)(C)C)sc2ccccc12 [Example 16, N-Ethyl-N-(methylthio)-2-(trimethylsilyl)benzo[b]-thiophene-3-carboxamide] | 100% | 100% | 100% | 87% | 93% | 
CC(C)N(O)C(=O)c1c([Si](C)(C)C)sc2ccccc12 [Example 17, N-Hydroxy-N-(1-methylethyl)-2-(trimethylsilyl)benzo[b]-thiophene-3-carboxamide] | 96% | 100% | 100% | 42% | 46% | 
CC(C)(C)Nc1ccc2ccccc2c1C(=O)NCCBr [Example 18, N-(2-bromoethyl) 2-[(1,1-dimethylethyl)amino]-1-naphthamide] | 10% | 88% | 98% | 0% | 14% | pest or weed control at 0.02 mg/pot ([2]; soil): 0%
CCC(C)(C)Nc1ccc2ccccc2c1C(=O)NCCBr [Example 19, N-(2-bromoethyl) 2-[(1,1-dimethylpropyl)amino]-1-naphthamide] | 68% | 93% | 98% | 0% | 22% | pest or weed control at 0.02 mg/pot ([2]; soil): 0%
CCNC(=O)c1c(NC(C)(C)C)ccc2ccccc12 [Example 20, N-ethyl 2-[(1,1-dimethylethyl)amino]-1-naphthamide] |  |  |  |  |  | inhibition at 0.1 ppm [1, 3]: 80%; inhibition at 1 ppm [1, 4]: 98%; inhibition at 10 ppm [1, 5]: 100%; IC50 ([1]; interpolated from percent inhibition at 1, 0.1, 0.01, 0.001 and 0.0001 ppm): 0.0716 µg/mL (≈ 0.265 µM); pest or weed control at 0.02 mg/pot ([2]; rate 0.02mg/pot, wheat, soil infested with Ggt, after four weeks): 5%; pest or weed control at 0.1 mg/pot [2, 6]: 24%; pest or weed control at 0.5 mg/pot ([2]; rate 0.5 (head prints ppm, head line ends mg/pot), wheat, soil infested with Ggt, after four weeks, N = no control): 61%
CCNC(=O)c1c(OC2(C)CCCCC2)ccc2ccccc12 [Example 38, N-ethyl 2-[(1-methyl-1-cyclohexyl)oxy]-1-naphthamide] |  |  |  |  |  | inhibition at 0.1 ppm [1, 3]: 0%; inhibition at 1 ppm [1, 4]: 43%; inhibition at 10 ppm [1, 5]: 30%
CCNC(=O)c1c([Si](C)(C)C)ccc2ccoc12 [Example 44, N-ethyl 6-trimethylsilyl benzofuran-7-carboxamide] | 98% | 98% | 100% |  |  | 
